In ChEMBL document CHEMBL4229358, “Synthesis of novel 4-functionalized 1,5-diaryl-1,2,3-triazoles containing benzenesulfonamide moiety as carbonic anhydrase I, II, IV and IX inhibitors” (Eur J Med Chem, 2018):

target: Carbonic anhydrase 9 (Homo sapiens, UniProt Q16790); experiment: Inhibition of transmembrane human carbonic anhydrase 9 by stopped flow CO2 hydration assay

Row | Compound | Ki [nM]
1 | NS(=O)(=O)c1ccc(-n2nnc(C(=O)O)c2-c2cccs2)cc1 | 1310
2 | CCOC(=O)c1nnn(-c2ccc(S(N)(=O)=O)cc2)c1-c1cccs1 | 237
3 | NS(=O)(=O)c1ccc(-n2nnc(CO)c2-c2ccccn2)cc1 | 14.3
4 | CCOC(=O)c1nnn(-c2ccc(S(N)(=O)=O)cc2)c1-c1ccccn1 | 1420
5 | NC(=O)c1nnn(-c2ccc(S(N)(=O)=O)cc2)c1-c1cccs1 | 225
6 | NS(=O)(=O)c1ccc(-n2nnc(CO)c2-c2ccc(Br)cc2)cc1 | 1730
7 | NNC(=O)c1nnn(-c2ccc(S(N)(=O)=O)cc2)c1-c1ccccn1 | 2900
8 | NC(=O)c1nnn(-c2ccc(S(N)(=O)=O)cc2)c1-c1ccccn1 | 730
9 | NS(=O)(=O)c1ccc(-n2nnc(CO)c2-c2cccs2)cc1 | 71.2
10 | NS(=O)(=O)c1ccc(-n2nnc(C(=O)O)c2-c2ccccn2)cc1 | 2090
11 | NS(=O)(=O)c1ccc(-n2nnc(CO)c2-c2ccc(F)cc2)cc1 | 2370
12 | NS(=O)(=O)c1ccc(-n2nnc(CO)c2-c2ccc(Cl)cc2)cc1 | 1210
13 | NNC(=O)c1nnn(-c2ccc(S(N)(=O)=O)cc2)c1-c1cccs1 | 2830

Further lines, results first:

Row | Ki [nM] | Compound
14 | 1350 | NNC(=O)c1nnn(-c2ccc(S(N)(=O)=O)cc2)c1-c1ccc(Br)cc1
15 | 1410 | Cc1ccc(-c2c(C(=O)O)nnn2-c2ccc(S(N)(=O)=O)cc2)cc1
16 | 738 | Cc1ccc(-c2c(C(=O)NN)nnn2-c2ccc(S(N)(=O)=O)cc2)cc1
17 | 256 | NC(=O)c1nnn(-c2ccc(S(N)(=O)=O)cc2)c1-c1ccc(Br)cc1
18 | 1410 | NS(=O)(=O)c1ccc(-n2nnc(C(=O)O)c2-c2ccc(Br)cc2)cc1
19 | 2450 | NNC(=O)c1nnn(-c2ccc(S(N)(=O)=O)cc2)c1-c1ccc(F)cc1
20 | 633 | CCOC(=O)c1nnn(-c2ccc(S(N)(=O)=O)cc2)c1-c1ccc(F)cc1
21 | 198 | CCOC(=O)c1nnn(-c2ccc(S(N)(=O)=O)cc2)c1-c1ccc(C)cc1
22 | 1480 | CCOC(=O)c1nnn(-c2ccc(S(N)(=O)=O)cc2)c1-c1ccc(Cl)cc1
23 | 73 | Cc1ccc(-c2c(C(N)=O)nnn2-c2ccc(S(N)(=O)=O)cc2)cc1
24 | 716 | NS(=O)(=O)c1ccc(-n2nnc(C(=O)O)c2-c2ccc(Cl)cc2)cc1
25 | 107 | NC(=O)c1nnn(-c2ccc(S(N)(=O)=O)cc2)c1-c1ccc(F)cc1
26 | 909 | NNC(=O)c1nnn(-c2ccc(S(N)(=O)=O)cc2)c1-c1ccc(Cl)cc1
27 | 2330 | Cc1ccc(-c2c(CO)nnn2-c2ccc(S(N)(=O)=O)cc2)cc1
28 | 228 | CCOC(=O)c1nnn(-c2ccc(S(N)(=O)=O)cc2)c1-c1ccc(Br)cc1
29 | 1580 | NS(=O)(=O)c1ccc(-n2nnc(C(=O)O)c2-c2ccc(F)cc2)cc1
30 | 117 | NC(=O)c1nnn(-c2ccc(S(N)(=O)=O)cc2)c1-c1ccc(Cl)cc1
